Laboratory results published in ChEMBL document CHEMBL1123077, “N-2,3-Butadienyl-1,4-butanediamine derivatives: potent irreversible inactivators of mammalian polyamine oxidase” (J Med Chem, 1985).

Key:
[1] = Half life in pig liver at 50 uM; type: ADME, organism-based, Sus scrofa; conditions: pig liver (preparation not specified)
[2] = Half life in pig liver at 12 uM; type: ADME, organism-based, Sus scrofa; conditions: pig liver (preparation not specified)

Row | half-life at 50 µM [1] [min] | half-life at 12 µM [2] [min] | SMILES
1 | 35 | – | C=CCNCCCCN
2 | – | 12 | C=CCNCCCCNC
